Earlier results as cited in patent publication US20050164987A1, “Melatonin combination therapy for improving sleep quality” (priority 2003, published 2005).
Read-outs that look alike come from different tables or passages of the source.

What was measured:
[1] = test system: other melatonin receptors
[2] = test system: MT-3 melatonin sites; conditions: hamster brain
[3] = test system: levels of melatonin; conditions: rats
[4] = target: human MT1 receptors (Homo sapiens, UniProt P48039)
[5] = in vivo
[6] = test system: physiological rhythms; conditions: 5 mg dose; simulated 9 h time lag
[7] = test system: mammalian melatonin receptors
[8] = test system: rats
[9] = test system: human subjects
[10] = test system: benzodiazepine receptors
[11] = test system: ML1 receptors
[12] = test system: dopamine receptors
[13] = test system: rats; remark: listed apart in the source
[14] = target: ML2 receptors (Homo sapiens, UniProt P16083)
Sequence of ML2 receptors (P16083 whole entry): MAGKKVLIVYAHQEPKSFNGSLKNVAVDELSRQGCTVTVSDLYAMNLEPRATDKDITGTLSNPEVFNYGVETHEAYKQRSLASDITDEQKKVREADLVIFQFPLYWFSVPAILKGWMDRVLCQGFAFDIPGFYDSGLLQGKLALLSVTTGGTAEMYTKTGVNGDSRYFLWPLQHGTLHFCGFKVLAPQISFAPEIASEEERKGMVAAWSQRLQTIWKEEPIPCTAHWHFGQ

[15] = test system: opiate receptors
[16] = not given; remark: listed apart in the source
[17] = target: T1, brain omega-1 receptor located on alpha subunit of the GABAA/chloride ion channel receptor complex (Homo sapiens, UniProt P14867+P18507)
T1 construct: host or cells: brain
T1 sequence (P14867 28-456): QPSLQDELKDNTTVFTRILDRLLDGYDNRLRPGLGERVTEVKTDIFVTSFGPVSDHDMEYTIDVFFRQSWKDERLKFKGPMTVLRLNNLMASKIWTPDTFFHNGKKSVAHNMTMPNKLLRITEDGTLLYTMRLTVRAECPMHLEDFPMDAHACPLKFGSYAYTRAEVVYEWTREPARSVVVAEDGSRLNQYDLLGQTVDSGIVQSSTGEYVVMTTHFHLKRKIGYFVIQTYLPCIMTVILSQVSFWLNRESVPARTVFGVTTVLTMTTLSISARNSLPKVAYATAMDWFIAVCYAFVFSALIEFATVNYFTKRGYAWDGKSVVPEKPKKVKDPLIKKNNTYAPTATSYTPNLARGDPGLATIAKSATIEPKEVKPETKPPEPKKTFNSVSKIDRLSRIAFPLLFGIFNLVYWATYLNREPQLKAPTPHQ
T1 sequence (P18507 40-475): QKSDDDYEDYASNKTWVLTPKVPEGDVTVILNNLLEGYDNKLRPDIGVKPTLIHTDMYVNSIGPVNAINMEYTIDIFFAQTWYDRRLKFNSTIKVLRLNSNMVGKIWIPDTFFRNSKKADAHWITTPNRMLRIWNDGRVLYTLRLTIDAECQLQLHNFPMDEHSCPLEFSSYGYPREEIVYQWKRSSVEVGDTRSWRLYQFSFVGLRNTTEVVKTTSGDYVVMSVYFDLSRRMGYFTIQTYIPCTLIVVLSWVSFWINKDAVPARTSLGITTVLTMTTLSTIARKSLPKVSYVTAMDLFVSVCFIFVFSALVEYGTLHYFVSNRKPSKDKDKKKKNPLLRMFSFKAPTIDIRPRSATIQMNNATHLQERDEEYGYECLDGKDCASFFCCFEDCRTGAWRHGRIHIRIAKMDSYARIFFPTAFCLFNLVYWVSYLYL
T1 sequence (P47870 25-512 partner limits assumed): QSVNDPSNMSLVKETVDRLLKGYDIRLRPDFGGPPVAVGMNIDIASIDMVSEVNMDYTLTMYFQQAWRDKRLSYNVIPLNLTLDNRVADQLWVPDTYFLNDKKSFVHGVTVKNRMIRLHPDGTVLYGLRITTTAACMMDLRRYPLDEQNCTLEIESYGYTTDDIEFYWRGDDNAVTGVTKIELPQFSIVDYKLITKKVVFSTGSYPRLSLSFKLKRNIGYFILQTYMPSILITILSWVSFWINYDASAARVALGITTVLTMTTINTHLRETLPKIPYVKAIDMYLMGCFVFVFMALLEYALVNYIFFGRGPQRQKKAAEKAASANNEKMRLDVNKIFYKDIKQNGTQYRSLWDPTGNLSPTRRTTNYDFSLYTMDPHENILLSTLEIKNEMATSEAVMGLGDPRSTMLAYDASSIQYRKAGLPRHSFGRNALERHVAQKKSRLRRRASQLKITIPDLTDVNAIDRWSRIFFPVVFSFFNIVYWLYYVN

[18] = test system: patients with major depressive disorder; conditions: 1, 5 and 25 mg once a day vs placebo, 8 weeks, over 700 patients
[19] = test system: mice; conditions: reference agents; scores below 40 denote behavioral depression
[20] = test system: GABA uptake system; conditions: concentrations of 5×10^-4 M
[21] = target: GABA:2-oxo-glutarate aminotransferase (Homo sapiens, UniProt P80404); conditions: concentrations of 10^−3 M
Sequence of GABA:2-oxo-glutarate aminotransferase (P80404 29-500): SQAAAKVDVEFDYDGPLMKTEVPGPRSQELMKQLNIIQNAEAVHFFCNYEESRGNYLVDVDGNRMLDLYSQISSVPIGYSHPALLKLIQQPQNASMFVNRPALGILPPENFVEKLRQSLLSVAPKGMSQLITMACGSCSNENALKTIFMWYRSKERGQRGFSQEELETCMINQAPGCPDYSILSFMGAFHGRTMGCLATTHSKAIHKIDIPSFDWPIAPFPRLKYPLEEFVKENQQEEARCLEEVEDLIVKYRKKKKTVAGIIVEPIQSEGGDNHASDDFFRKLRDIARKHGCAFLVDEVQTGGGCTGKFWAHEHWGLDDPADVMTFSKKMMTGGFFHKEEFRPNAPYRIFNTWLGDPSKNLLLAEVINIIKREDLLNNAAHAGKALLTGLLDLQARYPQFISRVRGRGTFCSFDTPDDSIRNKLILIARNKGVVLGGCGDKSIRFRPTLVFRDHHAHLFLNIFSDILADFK

[22] = test system: sleep; conditions: post-nap
[23] = test system: lumbar dorsal horn interneurones and Renshaw cells; conditions: in vivo
[24] = test system: healthy, elderly patients; conditions: oral administration
[25] = test system: L-glutamate 1-carboxylase; conditions: concentrations of 10^−3 M
[26] = test system: calcium-dependent release of dopamine from rabbit retina; conditions: picomolar concentrations
[27] = test system: calcium-dependent release of dopamine from chicken retina; conditions: picomolar concentrations
[28] = not given; remark: listed apart in the source
[29] = from the stomach
[30] = 10 mg or 64 mg dosages, compared to placebo

Sequence of human MT1 receptors (P48039 whole entry): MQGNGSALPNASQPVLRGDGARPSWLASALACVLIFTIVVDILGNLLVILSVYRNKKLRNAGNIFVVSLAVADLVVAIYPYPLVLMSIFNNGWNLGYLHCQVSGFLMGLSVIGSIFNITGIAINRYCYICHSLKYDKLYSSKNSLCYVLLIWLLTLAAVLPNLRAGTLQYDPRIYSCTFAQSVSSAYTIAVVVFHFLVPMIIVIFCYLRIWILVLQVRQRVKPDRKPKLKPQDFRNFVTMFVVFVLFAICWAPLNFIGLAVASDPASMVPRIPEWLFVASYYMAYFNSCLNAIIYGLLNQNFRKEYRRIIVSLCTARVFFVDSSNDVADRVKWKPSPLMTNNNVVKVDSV

## COC(=O)Nc1ccc2[nH]cc(CCNC(C)=O)c2c1 [5-MCA-NAT, 5-methoxy-carbonylamino-N-acetyltryptamine]
[1]
  affinity or efficacy for other melatonin receptors: low affinity or efficacy
[2]
  affinity for MT-3 melatonin sites: high affinity

## COc1cccc2c1CC(NC(C)=O)CC2 (centres unmarked) [AH-001, 2-acetamido-8-methoxytetralin]
[3]
  levels of melatonin: increase

## CCC(=O)NCC1Cc2cccc(OC)c2C1 (centres unmarked) [GG-012, 4-methoxy-2-(methylenepropylamide)indan]
[3]
  levels of melatonin: two-fold increase

## CC(=O)NCCN1CCc2ccc3c(c21)CCO3 [GR196429, N-[2-[2,3,7,8-tetrahydro-1H-furo(2,3-g)indol-1-yl]ethyl]acetamide]
[4]
  pKi: 9.9

## CC(=O)N(C)c1cccc(-c2ccnc3c(C(=O)c4cccs4)cnn23)c1 [Indiplon, N-methyl-N-(3-{3-[2-thienylcarbonyl]-pyrazolo-[1,5-a]-pyrimidin-7-yl}-phenyl)acetamide]
[5]
  half-life: approximately 1.3 hours

## COc1cc2c([C@@H](C)CNC(C)=O)c[nH]c2cc1Cl [LY 156735]
[6]
  readaptation speed of physiological rhythms: enhanced the readaptation speed

## CC(=O)NCCc1c(Cc2ccccc2)[nH]c2ccccc12 [Luzindole, 2-benzyl-N-acetyltryptamine]
[7]; concentrations up to 10 μM
  calcium-dependent release of [3H]dopamine: does not modify
  spontaneous outflow of [3H]dopamine: does not modify
[7]; in a competitive fashion
  ability of melatonin to inhibit [3H]dopamine release: antagonize

## COc1ccc2[nH]cc(CCNc3ccc([N+](=O)[O-])cc3[N+](=O)[O-])c2c1 [ML-23, N-2,4-dinitrophenyl-5-methoxy-tryptamine]
[8]
  development of severe motor impairment: prevented

## CP(=O)(O)CCCN [SKF 97541, 3-aminopropyl(methyl)phosphinic acid]
other
  solubility in water and dilute aqueous base: readily soluble

## CCC(=O)NCC[C@@H]1CCc2ccc3c(c21)CCO3 [TAK-375]
[9]; [30]
  falling asleep: fall asleep more quickly
  remaining asleep: remain asleep for a longer period of time
[9]; human subjects
  side effects: limited to only a few cases of headache, somnolence, fatigue, nausea, and dissiness
[10]
  binding affinity for benzodiazepine receptors: virtually no binding affinity
[11]
  affinity for ML1 receptors: very high affinity
[12]
  binding affinity for dopamine receptors: virtually no binding affinity
[13]; compared with melatonin
  duration of sleep-promoting effects: last longer than those of melatonin
[13]; rat, in vivo
  learning or memory: did not impair
[13]; rats
  potential for drug dependence: did not demonstrate the potential for drug dependence
[14]
  selectivity with respect to ML2 receptors: excellent selectivity
[15]
  binding affinity for opiate receptors: virtually no binding affinity

## CCN(C(C)=O)c1cccc(-c2ccnc3c(C#N)cnn23)c1 [Zaleplon, N-[3-(3-cyanopyrazolo[1,5-a]pyrimidin-7-yl)phenyl]-N-ethylacetamide]
[16]; following oral administration
  time of peak plasma concentrations: 1 h
[16]; oral, substantial presystemic metabolism
  bioavailability: 30%
[17]
  binding to brain omega-1 receptor: binds selectively

## COc1ccc2cccc(CCNC(C)=O)c2c1 [agomelatine]
[18]
  optimal dosage: 25 mg

## CN1C(=O)CN=C(c2ccccc2)c2cc(Cl)ccc21 [diazepam, 7-chloro-1,3-dihydro-1-methyl-5-phenyl-2H-1,4-benzodiazepin-2-one]
[19]
  ED100: 50 mg/kg

## Oc1noc2c1CCNC2 [gaboxadol, 4,5,6,7-tetrahydroisoxazolo[5,4-c]pyridin-3-ol]
[20]
  interaction with the GABA uptake system: did not interact
[21]
  interaction with GABA:2-oxo-glutarate aminotransferase: did not interact
[22]
  deep sleep: promoting
  falling asleep: facilitates falling asleep
  total sleep time: increasing
[23]
  effect of bicuculline methochloride (BMC) on the inhibitory action on central neurones: reversibly antagonized
[24]
  intensity of non-REM sleep: increase
  sleep consolidation: increase
[25]
  interaction with L-glutamate 1-carboxylase: did not interact

## CCC1(c2ccccc2)CCC(=O)NC1=O (centres unmarked) [glutethimide]
[19]
  ED100: 300 mg/kg

## O=C(CCCN1CCC(O)(c2ccc(Cl)cc2)CC1)c1ccc(F)cc1 [haloperidol]
[19]
  ED100: 10 mg/kg

## COc1ccc2[nH]cc(CCNC(C)=O)c2c1 [melatonin, N-[2-(5-Methoxy-1H-indol-3-yl)ethyl]acetamide]
[26]
  calcium-dependent release of dopamine: selectively inhibit
[27]
  calcium-dependent release of dopamine: selectively inhibit

## CCCC(C)(COC(N)=O)COC(N)=O [meprobamate]
[19]
  ED100: 300 mg/kg

## CCCC(C)C1(CC)C(=O)NC(=O)NC1=O (centres unmarked) [pentobarbital]
[19]
  ED100: 100 mg/kg

## COC(=O)[C@H]1[C@H]2C[C@@H]3c4[nH]c5cc(OC)ccc5c4CCN3C[C@H]2C[C@@H](OC(=O)c2cc(OC)c(OC)c(OC)c2)[C@@H]1OC [reserpine]
[19]
  ED100: 50 mg/kg

## Cc1ccc(-c2nc3ccc(C)cn3c2CC(=O)N(C)C)cc1 [zolpidem, N,N,6-trimethyl-2-(4-methylphenyl)-imidazo[1,2-s]pyridine-3-acetamide]
[28]; between 5 and 10 mg in conventional forms
  kinetics in the therapeutical dose range: linear kinetics
[28]; following oral administration
  bioavailability: 70%
[28]; in vivo
  duration of action: up to 6 hours
  time at which peak plasma concentration is reached: 0.5 to 3 h
[28]; mean
  elimination half-life: 2.4 h

## zopiclone
[29]
  absorption: well absorbed
